Test results reported in US6569842B2 (Board of Trustees of the University of Illinois, The, priority 2000, dated 2003).
Converted amounts (≈) assume the structure as drawn.

Key:
BC-1 (breast) = assay: Cytotoxicity against cultured BC-1 cells (SRB); type: cell-based, human; details: Method A, sample dissolved in DMSO, three days incubation; for IC50: Homo sapiens, BC1, 72 h, read-out: ED50 BC-1
Procedure: (§1) Cytotoxicity of the crude extracts and purified compounds was determined in a number of cultured human cancer cell lines. Table 1 sets forth the various types of cancer cells evaluated using Method A. The cells were cultured in appropriate media and under standard conditions. To maintain logarithmic growth, the media were changed 24 hours prior to cytotoxic assays. On the day of the assay, the cells were harvested by trypsinization, counted, diluted in media, and added to 96-well plates containing test compounds dissolved in DMSO. The final DMSO concentration was 0.05%.
In each of Methods A-C, the plates were incubated for three days. Following the incubation period, the cells were fixed and stained with sulforhodamine B (SRB) dye. The bound dye was liberated with Tris base, and the OD515 (optical density at 515 nm) was measured on an ELISA reader. […] Dose response studies were performed to generate ED50 values. As used herein, the term OD515 is defined as optical density at 515 nm, and the term ED50 is defined as the concentration of a compound required to reduce cell number by 50%.

U373 (glioma) = assay: Cytotoxicity against cultured U373 cells (SRB); type: cell-based, human; details: Method A, sample dissolved in DMSO; three days incubation
Procedure: as §1
(§2) In each of Methods A-C, the plates were incubated for three days. Following the incubation period, the cells were fixed and stained with sulforhodamine B (SRB) dye. The bound dye was liberated with Tris base, and the OD515 (optical density at 515 nm) was measured on an ELISA reader. The growth of the betulinic acid-treated cells was determined by the OD515 values, and the growth was compared to the OD515 values of […] control cells of Methods A-C. Dose response studies were performed to generate ED50 values. As used herein, the term OD515 is defined as optical density at 515 nm, and the term ED50 is defined as the concentration of a compound required to reduce cell number by 50%.

[1] = test system: KB (human oral epidermoid carcinoma); assay: Cytotoxicity against cultured KB cells (SRB); type: cell-based; details: Method A, sample dissolved in DMSO; three days incubation
Procedure: as §1, §2

MEL-2 (melanoma) = assay: Cytotoxicity against cultured MEL-2 cells (SRB); type: cell-based, human; details: Method A, sample dissolved in DMSO, three days incubation; for IC50: Homo sapiens, MEL2, 72 h, read-out: ED50 MEL-2
Procedure: as §1, §2

COL-2 (colon) = assay: Cytotoxicity against cultured COL-2 cells (SRB); type: cell-based, human; details: Method A, sample dissolved in DMSO, three days incubation; for IC50: Homo sapiens, Col2, 72 h, read-out: ED50 COL-2
Procedure: as §1, §2

LNCaP (prostate) = assay: Cytotoxicity against cultured LNCaP cells (SRB); type: cell-based, human; details: Method A, sample dissolved in DMSO; three days incubation
Procedure: as §1, §2

ZR-75-1 (breast) = assay: Cytotoxicity against cultured ZR-75-1 cells (SRB); type: cell-based, human; details: Method A, sample dissolved in DMSO, three days incubation; for IC50: Homo sapiens, ZR-75-1, 72 h, read-out: ED50 ZR 75-1
Procedure: as §1, §2

LU-1 (lung) = assay: Cytotoxicity against cultured LU-1 cells (SRB); type: cell-based, human; details: Method A, sample dissolved in DMSO, three days incubation; for IC50: Homo sapiens, Lu1, 72 h, read-out: ED50 LU-1
Procedure: as §1, §2

A431 (squamous cells) = assay: Cytotoxicity against cultured A431 cells (SRB); type: cell-based, human; details: Method A, sample dissolved in DMSO; three days incubation
Procedure: as §1, §2

HT-1080 (sarcoma) = assay: Cytotoxicity against cultured HT-1080 cells (SRB); type: cell-based, human; details: Method A, sample dissolved in DMSO, three days incubation; for IC50: Homo sapiens, HT-1080, 72 h, read-out: ED50 HT-1080
Procedure: as §1, §2

a variety of tumors = details: Phase II trials in Japan; cited from earlier work

Compound | IC50 (BC-1 (breast)) | ED50 U373 (U373 (glioma)) | ED50 KB [1] | IC50 (MEL-2 (melanoma)) | IC50 (COL-2 (colon)) | ED50 LNCaP (LNCaP (prostate)) | IC50 (ZR-75-1 (breast)) | IC50 (LU-1 (lung)) | ED50 A431 (A431 (squamous cells)) | IC50 (HT-1080 (sarcoma)) | response rate, lymphoma (a variety of tumors) | response rate, small cell lung (a variety of tumors) | ED50 BC-1 (BC-1 (breast)) | ED50 MEL-2 (MEL-2 (melanoma)) | ED50 LU-1 (LU-1 (lung)) | ED50 COL-2 (COL-2 (colon)) | ED50 HT-1080 (HT-1080 (sarcoma)) | ED50 ZR 75-1 (ZR-75-1 (breast))
CC(=O)O[C@H]1C(=O)[C@@]2(C)[C@H]([C@H](OC(=O)c3ccccc3)[C@]3(O)C[C@H](OC(=O)[C@H](O)[C@@H](NC(=O)c4ccccc4)c4ccccc4)C(C)=C1C3(C)C)[C@]1(OC(C)=O)CO[C@@H]1C[C@@H]2O [Taxol, paclitaxel] | 0.02 µg/mL (≈ 0.0234 µM) | 0.008 µg/mL (≈ 0.00937 µM) | 0.02 µg/mL (≈ 0.0234 µM) | 0.06 µg/mL (≈ 0.0703 µM) | 0.02 µg/mL (≈ 0.0234 µM) | 0.02 µg/mL (≈ 0.0234 µM) | 0.02 µg/mL (≈ 0.0234 µM) | – | – | – | – | – | – | – | – | – | – | –
CC[C@]1(O)C[C@@H]2CN(CCc3c([nH]c4ccccc34)[C@@](C(=O)OC)(c3cc4c(cc3OC)N(C)[C@H]3[C@@](O)(C(=O)OC)[C@H](OC(C)=O)[C@]5(CC)C=CCN6CC[C@]43[C@@H]65)C2)C1 [Vinblastine] | 0.06 µg/mL (≈ 0.074 µM) | 1.1 µg/mL (≈ 1.36 µM) | 0.04 µg/mL (≈ 0.0493 µM) | 0.01 µg/mL (≈ 0.0123 µM) | 0.01 µg/mL (≈ 0.0123 µM) | 0.1 µg/mL (≈ 0.123 µM) | 0.3 µg/mL (≈ 0.37 µM) | 0.02 µg/mL (≈ 0.0247 µM) | 0.05 µg/mL (≈ 0.0617 µM) | 0.02 µg/mL (≈ 0.0247 µM) | – | – | – | – | – | – | – | –
CC[C@]1(O)C[C@H]2CN(CCc3c([nH]c4ccccc34)[C@@](C(=O)OC)(c3cc4c(cc3OC)N(C=O)[C@H]3[C@@](O)(C(=O)OC)[C@H](OC(C)=O)[C@]5(CC)C=CCN6CC[C@]43[C@@H]65)C2)C1 [Vincristine] | 0.01 µg/mL (≈ 0.0121 µM) | 0.06 µg/mL (≈ 0.0727 µM) | – | 0.02 µg/mL (≈ 0.0242 µM) | 0.02 µg/mL (≈ 0.0242 µM) | 0.1 µg/mL (≈ 0.121 µM) | 0.4 µg/mL (≈ 0.485 µM) | 0.05 µg/mL (≈ 0.0606 µM) | 0.01 µg/mL (≈ 0.0121 µM) | 0.02 µg/mL (≈ 0.0242 µM) | – | – | – | – | – | – | – | –
CCc1c2c(nc3ccc(OC(=O)N4CCC(N5CCCCC5)CC4)cc13)-c1cc3c(c(=O)n1C2)COC(=O)[C@]3(O)CC [irinotican] | – | – | – | – | – | – | – | – | – | – | 0% | 50% | – | – | – | – | – | –
Mithramycin A | – | 0.04 µg/mL | 0.09 µg/mL | – | – | 0.05 µg/mL | – | – | 0.09 µg/mL | – | – | – | 0.3 µg/mL | 1.2 µg/mL | 0.2 µg/mL | 0.06 µg/mL | 1.5 µg/mL | 0.2 µg/mL
